{
  "source": "the supplement of paper PMC10307832",
  "key": {"[1]": {"compound": "CC1=C(C(=NN1)C)CC2=C(C3=C(S2)N(C(=O)N(C3=O)C)CC(C)C)C(=O)N4C[C@@H](CO4)O", "experiment": "relative viability (nuclei count vs DMSO), 5 days (fraction); higher = more cells survive", "summary_of_the_method": "(§1)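 Viability is treated-well nuclei as a fraction of vehicle-well nuclei, reported as the median across plates. Before counting, lung cancer cell lines were kept overnight at 37 °C in 1536-well plates, pinned with five √10-spaced library-drug doses on vehicle-anchored plates, and left 5 days without medium change, then fixed, permeabilised and Hoechst-stained in one step, imaged at 4× and counted by MetaXpress. A plate passed only if control CV was below 25% and at least one doubling occurred.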"}, "IDH-C35": {"compound": "Cc1ccccc1C(C(=O)NC1CCCCC1)N(C(=O)Cn1ccnc1C)c1cccc(F)c1 [IDH-C35]", "experiment": "relative viability (nuclei count vs DMSO), 5 days (fraction); higher = more cells survive", "summary_of_the_method": "as §1"}},
  "data": [
    {"cell line": "PC-14", "values": [
      {"measurement": "relative viability", "setting": "[1]; 0.0025 µM", "value": 1.06},
      {"measurement": "relative viability", "setting": "[1]; 0.007906 µM", "value": 1.06},
      {"measurement": "relative viability", "setting": "[1]; 0.025 µM", "value": 0.889},
      {"measurement": "relative viability", "setting": "[1]; 0.07906 µM", "value": 1.12},
      {"measurement": "relative viability", "setting": "[1]; 0.25 µM", "value": 1.16},
      {"measurement": "relative viability", "setting": "IDH-C35; 0.08 µM", "value": 1.04},
      {"measurement": "relative viability", "setting": "IDH-C35; 0.253 µM", "value": 0.996},
      {"measurement": "relative viability", "setting": "IDH-C35; 0.8 µM", "value": 1},
      {"measurement": "relative viability", "setting": "IDH-C35; 2.53 µM", "value": 0.997},
      {"measurement": "relative viability", "setting": "IDH-C35; 8 µM", "value": 0.937}
    ]},
    {"cell line": "RERF-LC-KJ", "values": [
      {"measurement": "relative viability", "setting": "[1]; 0.0025 µM", "value": 1.01},
      {"measurement": "relative viability", "setting": "[1]; 0.007906 µM", "value": 1.07},
      {"measurement": "relative viability", "setting": "[1]; 0.025 µM", "value": 0.985},
      {"measurement": "relative viability", "setting": "[1]; 0.07906 µM", "value": 0.98},
      {"measurement": "relative viability", "setting": "[1]; 0.25 µM", "value": 1.06},
      {"measurement": "relative viability", "setting": "IDH-C35; 0.08 µM", "value": 0.962},
      {"measurement": "relative viability", "setting": "IDH-C35; 0.253 µM", "value": 0.929},
      {"measurement": "relative viability", "setting": "IDH-C35; 0.8 µM", "value": 1.03},
      {"measurement": "relative viability", "setting": "IDH-C35; 2.53 µM", "value": 1.01},
      {"measurement": "relative viability", "setting": "IDH-C35; 8 µM", "value": 0.943}
    ]},
    {"cell line": "SK-LU-1", "values": [
      {"measurement": "relative viability", "setting": "[1]; 0.0025 µM", "value": 0.914},
      {"measurement": "relative viability", "setting": "[1]; 0.007906 µM", "value": 0.789},
      {"measurement": "relative viability", "setting": "[1]; 0.025 µM", "value": 0.634},
      {"measurement": "relative viability", "setting": "[1]; 0.07906 µM", "value": 0.714},
      {"measurement": "relative viability", "setting": "[1]; 0.25 µM", "value": 0.615},
      {"measurement": "relative viability", "setting": "IDH-C35; 0.08 µM", "value": 1.01},
      {"measurement": "relative viability", "setting": "IDH-C35; 0.253 µM", "value": 0.986},
      {"measurement": "relative viability", "setting": "IDH-C35; 0.8 µM", "value": 1.1},
      {"measurement": "relative viability", "setting": "IDH-C35; 2.53 µM", "value": 1.05},
      {"measurement": "relative viability", "setting": "IDH-C35; 8 µM", "value": 1.01}
    ]},
    {"cell line": "SK-MES-1", "values": [
      {"measurement": "relative viability", "setting": "[1]; 0.0025 µM", "value": 1.03},
      {"measurement": "relative viability", "setting": "[1]; 0.007906 µM", "value": 1.07},
      {"measurement": "relative viability", "setting": "[1]; 0.025 µM", "value": 1.02},
      {"measurement": "relative viability", "setting": "[1]; 0.07906 µM", "value": 1.07},
      {"measurement": "relative viability", "setting": "[1]; 0.25 µM", "value": 1.06},
      {"measurement": "relative viability", "setting": "IDH-C35; 0.08 µM", "value": 0.983},
      {"measurement": "relative viability", "setting": "IDH-C35; 0.253 µM", "value": 0.984},
      {"measurement": "relative viability", "setting": "IDH-C35; 0.8 µM", "value": 0.985},
      {"measurement": "relative viability", "setting": "IDH-C35; 2.53 µM", "value": 1.02},
      {"measurement": "relative viability", "setting": "IDH-C35; 8 µM", "value": 0.986}
    ]},
    {"cell line": "SW 900", "values": [
      {"measurement": "relative viability", "setting": "[1]; 0.0025 µM", "value": 1.06},
      {"measurement": "relative viability", "setting": "[1]; 0.007906 µM", "value": 1.16},
      {"measurement": "relative viability", "setting": "[1]; 0.025 µM", "value": 0.835},
      {"measurement": "relative viability", "setting": "[1]; 0.07906 µM", "value": 0.888},
      {"measurement": "relative viability", "setting": "[1]; 0.25 µM", "value": 0.97},
      {"measurement": "relative viability", "setting": "IDH-C35; 0.08 µM", "value": 0.871},
      {"measurement": "relative viability", "setting": "IDH-C35; 0.253 µM", "value": 0.849},
      {"measurement": "relative viability", "setting": "IDH-C35; 0.8 µM", "value": 0.768},
      {"measurement": "relative viability", "setting": "IDH-C35; 2.53 µM", "value": 0.834},
      {"measurement": "relative viability", "setting": "IDH-C35; 8 µM", "value": 0.897}
    ]},
    {"cell line": "SW 1573", "values": [
      {"measurement": "relative viability", "setting": "[1]; 0.0025 µM", "value": 1.02},
      {"measurement": "relative viability", "setting": "[1]; 0.007906 µM", "value": 1.09},
      {"measurement": "relative viability", "setting": "[1]; 0.025 µM", "value": 0.975},
      {"measurement": "relative viability", "setting": "[1]; 0.07906 µM", "value": 0.957},
      {"measurement": "relative viability", "setting": "[1]; 0.25 µM", "value": 1.05},
      {"measurement": "relative viability", "setting": "IDH-C35; 0.08 µM", "value": 1.1},
      {"measurement": "relative viability", "setting": "IDH-C35; 0.253 µM", "value": 1.12},
      {"measurement": "relative viability", "setting": "IDH-C35; 0.8 µM", "value": 0.951},
      {"measurement": "relative viability", "setting": "IDH-C35; 2.53 µM", "value": 0.875},
      {"measurement": "relative viability", "setting": "IDH-C35; 8 µM", "value": 0.898}
    ]}
  ]
}
